The source of these data is patent US6989351B2, “Metabolic inhibitors against brassinosteroids” (Riken, priority 2000, dated 2006).

In assay [1] the test system is metabolism of brassinolide. In words: brassinolide metabolism in cell free system (degradation associated with oxidation of the 26th position of brassinolide). Type of assay: biochemical. Conditions: cell free system from immature seeds of Pisum sativum. As for the experimental part: To examine whether the accelerating activity on elongation of the cress hypocotyl was on the basis of the inhibitory activity against the metabolism of brassinolide, which is considered to be a practically active brassinosteroid, activity of the compounds was examined in degradation system associated with oxidation of the 26th position of brassinolide. Immature seeds of Pisum sativum were used as plant materials. Brassinolide was added to a cell free system, and metabolic activity was determined by quantifying the compound at the right end in the following scheme to examine inhibitory action of difenoconazole against metabolism. [drawing 6]

In assay [2] the test system is brassinosteroid biosynthesis. In words: action on plants when used at a high concentration. The text has this:
Methods of application and doses of the metabolism inhibitor of the present invention can be suitably chosen by those skilled in the art depending on conditions including a purpose of application, a dosage form, a plot to be treated and the like. […] Such a phenomenon is recognized in difenoconazole, Brz217, Brz218, Brz224, Brz225 and the like, which are typical examples of the metabolism inhibitor of the present invention. Therefore, the metabolism inhibitor of the present invention is preferably applied to plants at a relatively low concentration. However, concentrations to achieve optimum action can be appropriately determined by those skilled in the art by referring to the following examples.

Molecules are shown by their SMILES.

Regarding `CC1COC(Cn2cncn2)(c2ccc(Oc3ccc(Cl)cc3)cc2Cl)O1` (stereo not drawn) [Difenoconazole, difenoconazole], the “Ratio of metabolism inhibition degree (%) relative to control” value in assay [1] (0.01 μM) came out at 0%; in assay [1] (0.1 μM), 7%; in assay [1] (1.0 μM), 72%; in assay [1] (10 μM), 76%. Moreover, the “action at a high concentration, opposite to the action of the metabolism inhibitor” value (“action … of the metabolism inhibitor” below) in assay [2] is “inhibit brassinosteroid biosynthesis when used at a high concentration”.

Regarding `CCCC1COC(Cn2cncn2)(c2ccccc2Cl)O1` (stereo not drawn) [Brz217], in assay [2], the “action … of the metabolism inhibitor” value is reported as “inhibit brassinosteroid biosynthesis when used at a high concentration”.

`CCCC1COC(Cn2cncn2)(c2ccc(OC)cc2)O1` (stereo not drawn) [Brz224]: in assay [2], the “action … of the metabolism inhibitor” value is listed as “inhibit brassinosteroid biosynthesis when used at a high concentration”.

As to `CCCC1COC(Cn2cncn2)(c2cccc(Cl)c2)O1` (stereo not drawn) [Brz218], in assay [2], the “action … of the metabolism inhibitor” value is listed as “inhibit brassinosteroid biosynthesis when used at a high concentration”.

As for `COCC1COC(Cn2cncn2)(c2ccc(Cl)cc2)O1` (stereo not drawn) [Brz225], the “action … of the metabolism inhibitor” value in assay [2] was “inhibit brassinosteroid biosynthesis when used at a high concentration”.
